Measured values published in patent publication US20230348465A1, “IBOGAINE ANALOGS AS THERAPEUTICS FOR NEUROLOGICAL AND PSYCHIATRIC DISORDERS” (The Trustees of Columbia University in the City of New York, priority 2020, published 2023).
Like-named read-outs stand apart in the source and are kept apart here.

How the values were obtained:
hSERT = biological target: T1, hSERT (Homo sapiens, UniProt P31645); test: hSERT screening assay: inhibition of uptake of the fluorescent substrate APP+ in stably transfected hSERT-HEK cells; assay type: cell-based; conditions: for IC50: hSERT-HEK cells, APP+ 1.1 µM, mean ± SEM, n ≥ 4, read-out: SERT IC50; for Ki: Cheng-Prusoff from IC50, Km (APP+) = 1.6 µM, read-out: SERT Ki
T1 construct: expressed in transfected cells; host or cells: HEK cells, stably transfected (hSERT-HEK), kept under G418
T1 sequence (P31645 whole entry): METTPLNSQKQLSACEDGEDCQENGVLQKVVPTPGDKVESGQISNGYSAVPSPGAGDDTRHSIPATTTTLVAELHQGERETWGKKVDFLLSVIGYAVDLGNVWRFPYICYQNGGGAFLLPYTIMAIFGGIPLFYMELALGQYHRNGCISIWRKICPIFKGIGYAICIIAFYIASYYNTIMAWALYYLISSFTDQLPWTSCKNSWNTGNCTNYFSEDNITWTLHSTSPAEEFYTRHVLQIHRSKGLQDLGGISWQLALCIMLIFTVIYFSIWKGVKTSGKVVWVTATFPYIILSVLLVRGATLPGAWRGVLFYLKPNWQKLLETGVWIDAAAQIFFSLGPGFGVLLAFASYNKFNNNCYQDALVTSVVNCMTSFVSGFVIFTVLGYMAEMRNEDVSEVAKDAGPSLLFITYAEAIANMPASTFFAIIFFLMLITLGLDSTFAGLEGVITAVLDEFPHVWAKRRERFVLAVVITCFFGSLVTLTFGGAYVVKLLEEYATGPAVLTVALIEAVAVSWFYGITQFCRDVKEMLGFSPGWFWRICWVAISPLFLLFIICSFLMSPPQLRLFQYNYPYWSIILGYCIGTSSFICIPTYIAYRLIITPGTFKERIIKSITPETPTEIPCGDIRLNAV
Description: (§1) Stably transfected hSERT-HEK and rVMAT2-HEK cellular cultures were maintained in Dulbecco’s Minimal Essential Medium (DMEM) with GlutaMAX (Gibco) with the following additions: 10% (v/v) Fetal Bovine Serum (FBS, Atlanta Biologicals), 100 U/mL Penicillin, and 10 µg/mL Streptomycin (Gibco). With regards to the former cell lineage, an additional ingredient, 500 µg/mLGeneticin (G418) (Sigma) was included to preserve the respective transgene.
(§2) For both hSERT and rVMAT2 screening experiments, respective singly transfected cells were seeded at a density of 0.09 × 10^6 cells/well in poly-D-Lysine (Sigma) coated white solid-bottom 96-well plates. Growth was permitted for approximately 44 hours in said aqueous media and at an incubation environment of 37° C. and 5% Carbon Dioxide. At the beginning of the experiment, the cellular growth solution was aspirated, and individual cells were rinsed with 150 µL of 1× Dulbecco’s Phosphate Buffered Saline (PBS; HyClone). 63 µL of Experimental Media (consisting of the following contents: DMEM without phenol red but with 4.5 g/L of D-Glucose (Gibco), 1 % (v/v) FBS (Atlanta Biologicals), 100 U/mL Penicillin, and 10 µg/mLStreptomycin (Gibco)) with 2 × tiered concentrations of inhibitor (or DMSO, the vehicle of these experiments) were added to the respective wells. […] After a required incubation period of 30 minutes for proper fluorescent probe uptake, the contents of each well were aspirated and consequently, rinsed twice with 120 µL of PBS. A final solution of 120 µL of PBS is finally added to all corresponding wells for cell maintenance before undergoing fluorescence uptake reading by a BioTek H1MF plate reader.
(§3) Numerical analysis of the collected experimental data preceded as accordingly. Respective inhibitor values were first subtracted from vehicular values to quantify the respective fluorescence uptake. This metric was then analyzed using the dose-response-inhibitor nonlinear curve fitting model ([inhibitor] vs response (three parameters)) as supplied by GraphPad Prism 6 software. For each inhibitor, the model supplied a respective IC50 ± SEM value (Table 1).

rVMAT2 = biological target: T2, rVMAT2 (Rattus norvegicus, UniProt Q01827); test: rVMAT2 screening assay: inhibition of uptake of the fluorescent substrate FFN206 in stably transfected rVMAT2-HEK cells; assay type: cell-based; conditions: for Ki: read-out: VMAT2 Ki
T2 construct: expressed in transfected cells; host or cells: HEK cells, stably transfected (rVMAT2-HEK)
T2 sequence (Q01827 whole entry): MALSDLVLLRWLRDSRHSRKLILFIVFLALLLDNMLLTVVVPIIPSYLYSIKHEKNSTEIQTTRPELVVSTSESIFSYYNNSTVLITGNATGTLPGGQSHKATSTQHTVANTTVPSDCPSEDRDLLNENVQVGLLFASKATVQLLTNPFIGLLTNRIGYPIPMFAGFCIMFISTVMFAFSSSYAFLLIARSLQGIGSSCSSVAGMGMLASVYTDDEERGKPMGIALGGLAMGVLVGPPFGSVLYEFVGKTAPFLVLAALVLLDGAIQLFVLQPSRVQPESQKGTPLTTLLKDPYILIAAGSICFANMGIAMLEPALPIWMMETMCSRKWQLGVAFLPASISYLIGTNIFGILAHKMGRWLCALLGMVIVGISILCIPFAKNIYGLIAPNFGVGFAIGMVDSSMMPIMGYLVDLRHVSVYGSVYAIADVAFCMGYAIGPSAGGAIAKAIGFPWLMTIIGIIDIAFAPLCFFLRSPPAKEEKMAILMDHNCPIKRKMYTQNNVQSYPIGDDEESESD
Description: as §1, §2, §3

[1] = Metabolic stability and noribogaine formation in rat liver microsomes (RLM), LC-MS/MS; conditions: for percent remaining of parent compound: 10 µM, + NADPH; for CLh,int: 45 mg microsomal protein per gm liver; for % Remaining at 60 min (- NADPH): without NADPH; for %Remaining at 60 min (Buffer): buffer control, RLM column; for half-life at 10 µM: male, rat, microsomes, pH 7.4
Description: (§4) Metabolism Studies. Metabolic stability of test compounds was evaluated in liver microsomes from rat (RLM) and human (HLM). This was accomplished by incubating test compounds with microsomes and monitoring disappearance of parent compound as well as metabolite formation over time using LC-MS/MS in Multiple Reaction Monitoring mode (MRM).
(§5) Stock solutions of test compounds were prepared in DMSO at a concentration of 10 mM.
(§6) From the above mix, 70 µL was added to individual wells of 96 well reaction plates and preincubated at 37° C. for 5 min. […] Reactions without NADPH and buffer controls (minus NADPH) at 0 min and 60 min were also incubated to rule out non-NADPH metabolism or chemical instability in the incubation buffer. All reactions were terminated using 100 µL of ice-cold acetonitrile containing internal standard (glipizide) at 0, 5, 15, 30 and 60 min.
(§7) Samples were monitored for parent compounds disappearance and formation of metabolite in MRM mode using LC-MS/MS instrument (API-4000 with Waters UPLC).
(§8) The percent remaining of test compounds and positive control in each sample was determined by considering peak area ratio in the 0 minute sample as 100%. The Half-life of compounds in microsomes is calculated by formula: […]
(§9) In vitro intrinsic clearance (CL´int) (units in mL/min/kg) was calculated using the formula: […]
(§10) * Indicates liver weight (gm) which varies species wise. For human, monkey, dog, rat and mouse the liver weight are 20 gm, 32 gm, 32 gm, 40 gm and 90 gm respectively.

[2] = Metabolic stability and noribogaine formation in human liver microsomes (HLM), LC-MS/MS; conditions: for percent remaining of parent compound / CLh,int / % Remaining at 60 min (+ NADPH) / % Remaining at 60 min (- NADPH): HLM; for percent remaining of parent compound: 10 µM, + NADPH; for CLh,int: 45 mg microsomal protein per gm liver; for % Remaining at 60 min (+ NADPH): summary line; for % Remaining at 60 min (- NADPH): without NADPH; for %Remaining at 60 min (Buffer): buffer control, HLM column; for half-life at 10 µM: human, microsomes, pH 7.4
Description: as §4, §5, §6, §7, §8, §9, §10

[3] = rVMAT2-HEK cells, FFN206 0.75 µM, mean ± SEM, n ≥ 4, read-out: VMAT2 IC50
[4] = ratio of potency to noribogaine

CCOc1ccc2[nH]c3c(c2c1)CCN1CC2CC(CC)C1C3C2 (centres unmarked) [10-Ethoxy-ibogamine]
SERT inhibition, result in words (hSERT): only a weak inhibitor of SERT | IC50 (hSERT): 9 ± 1.1 µM | VMAT2 inhibition, result in words (rVMAT2): potent VMAT2 inhibitor | VMAT2 inhibition, result in words (rVMAT2; listed as 10-Ethoxy-ibogaine): nearly an order of magnitude more potent | IC50 (rVMAT2; [3]): 0.08 ± 0.02 µM | Ki (rVMAT2): 0.05 ± 0.01 µM | percent remaining of parent compound ([1]; RLM, 0 min): 100% | CLh,int ([1]; RLM): 26.7 L/h/kg | percent remaining of parent compound ([1]; RLM, 5 min): 77% | percent remaining of parent compound ([1]; RLM, 15 min): 42% | percent remaining of parent compound ([1]; RLM, 30 min): 3% | percent remaining of parent compound ([1]; RLM, 60 min): 0% | % Remaining at 60 min (+ NADPH) ([1]; RLM, summary line): 0% | % Remaining at 60 min (- NADPH) ([1]; RLM): 88% | %Remaining at 60 min (Buffer) [1]: 88% | half-life at 10 µM [1]: 6 min | percent remaining of parent compound ([2]; 0 min): 100% | CLh,int [2]: 0.78 L/h/kg | percent remaining of parent compound ([2]; 5 min): 103% | percent remaining of parent compound ([2]; 15 min): 98% | percent remaining of parent compound ([2]; 30 min): 85% | percent remaining of parent compound ([2]; 60 min): 66% | % Remaining at 60 min (+ NADPH) [2]: 66% | % Remaining at 60 min (- NADPH) [2]: 106% | %Remaining at 60 min (Buffer) [2]: 88% | half-life at 10 µM [2]: > 60 min

CCC1CC2CC3c4[nH]c5ccc(C(N)=O)cc5c4CCN(C2)C13 (centres unmarked) [Compound 2, Ibogamine-10-carboxamide]
IC50 (hSERT): 2.5 ± 0.29 µM | IC50 (rVMAT2; [3]): 3 ± 0.57 µM

CCC1CC2CC3c4[nH]c5ccc(C#N)cc5c4CCN(C2)C13 (centres unmarked) [Compound 3, Ibogamine-10-carbonitrile]
IC50 (hSERT): 0.026 ± 0.0038 µM | IC50 (rVMAT2; [3]): 3.3 ± 0.43 µM

CCCOc1ccc2[nH]c3c(c2c1)CCN1CC2CC(CC)C1C3C2 (centres unmarked) [Compound 4, 10-Propoxy-ibogamine]
IC50 (hSERT): 3 ± 0.5 µM

CCC1CC2CC3c4[nH]c5ccccc5c4CCN(C2)C13 (centres unmarked) [Compound 5, Ibogamine]
Ki (hSERT): 0.2 ± 0.02 µM | IC50 (hSERT): 0.33 ± 0.04 µM | IC50 (rVMAT2; [3]): 3 ± 0.55 µM | times weaker than noribogaine at VMAT2 (rVMAT2; [4]): approximately 5.3 | Ki (rVMAT2): 1.8 ± 0.34 µM

CCC1CC2CC3c4c(c5ccccc5n4C)CCN(C2)C13 (centres unmarked) [Compound 6, N-methyl-ibogamine]
IC50 (hSERT): 0.08 ± 0.009 µM | IC50 (rVMAT2; [3]): 1.5 ± 0.16 µM

CCC1CC2CC3c4c(c5cc(OC)ccc5n4C)CCN(C2)C13 (centres unmarked) [Compound 7, N-methyl-ibogaine]
IC50 (hSERT): 1.5 ± 0.13 µM | IC50 (rVMAT2; [3]): 0.74 ± 0.11 µM

CCC1CC2CC3c4c(c5cc(O)ccc5n4C)CCN(C2)C13 (centres unmarked) [Compound 8, N-methyl-noribogaine]
Ki (hSERT): 0.035 ± 0.0067 µM | IC50 (hSERT): 0.059 ± 0.011 µM | times more potent than noribogaine at SERT (hSERT; [4]): approximately 4.7 | IC50 (rVMAT2; [3]): 0.17 ± 0.03 µM | times more potent than noribogaine at VMAT2 (rVMAT2; [4]): approximately 3.4 | Ki (rVMAT2): 0.1 ± 0.02 µM

CCC1CC2CC3c4c(c5cc(C#N)ccc5n4C)CCN(C2)C13 (centres unmarked) [Compound 10, N-methyl-ibogamine-10-carbonitrile]
IC50 (hSERT): 0.0051 ± 0.00083 µM | IC50 (rVMAT2; [3]): 0.44 ± 0.05 µM

CCc1ccc2c(c1)c1c(n2C)C2CC3CC(CC)C2N(CC1)C3 (centres unmarked) [Compound 11, N-methyl-10-ethyl-ibogamine]
IC50 (hSERT): 0.91 ± 0.12 µM | IC50 (rVMAT2; [3]): 0.75 ± 0.07 µM

CCC1CC2CC3c4c(c5cc(O)ccc5n4CC)CCN(C2)C13 (centres unmarked) [Compound 13, N-ethyl-noribogaine]
IC50 (hSERT): 1.9 ± 0.2 µM | IC50 (rVMAT2; [3]): 0.07 ± 0.01 µM

CCOc1ccc2c(c1)c1c(n2C)C2CC3CC(CC)C2N(CC1)C3 (centres unmarked) [Compound 14, N-methyl-10-ethoxy-ibogamine]
IC50 (hSERT): 2.8 ± 0.38 µM

CCC1CC2CC3c4[nH]c5ccc(OC)c(Br)c5c4CCN(C2)C13 (centres unmarked) [Compound 17, 9-Bromo-ibogaine]
Ki (hSERT): 0.4 ± 0.09 µM | IC50 (hSERT): 0.67 ± 0.16 µM | times less potent than noribogaine at SERT (hSERT; [4]): approximately 2.4 | IC50 (rVMAT2; [3]): 4.9 ± 0.87 µM | times weaker than noribogaine at VMAT2 (rVMAT2; [4]): ~8.6 | Ki (rVMAT2): 3 ± 0.53 µM

CCC1CC2CC3c4[nH]c5cc(Br)c(OC)cc5c4CCN(C2)C13 (centres unmarked) [Compound 18, 11-Bromo-ibogaine]
IC50 (hSERT): 0.2 ± 0.03 µM | IC50 (rVMAT2; [3]): 1 ± 0.15 µM

CCC1CC2CC3c4[nH]c5ccc(OC)c(Cl)c5c4CCN(C2)C13 (centres unmarked) [Compound 19, 9-Chloro-ibogaine]
IC50 (hSERT): 1.2 ± 0.12 µM | IC50 (rVMAT2; [3]): 18 ± 5.9 µM

CCC1CC2CC3c4[nH]c5ccc(OC)cc5c4CCN(C2)C13 (centres unmarked) [Ibogaine]
IC50 (rVMAT2): ~4 µM | percent remaining of parent compound ([1]; RLM, 0 min): 100% | CLh,int ([1]; RLM): 18.4 L/h/kg | percent remaining of parent compound ([1]; RLM, 5 min): 86% | percent remaining of parent compound ([1]; RLM, 15 min): 56% | percent remaining of parent compound ([1]; RLM, 30 min): 23% | percent remaining of parent compound ([1]; RLM, 60 min): 1% | % Remaining at 60 min (- NADPH) ([1]; RLM): 104% | %Remaining at 60 min (Buffer) [1]: 103% | half-life at 10 µM [1]: 8 min | percent remaining of parent compound ([2]; 0 min): 100% | CLh,int [2]: 0.42 L/h/kg | percent remaining of parent compound ([2]; 5 min): 104% | percent remaining of parent compound ([2]; 15 min): 98% | percent remaining of parent compound ([2]; 30 min): 94% | percent remaining of parent compound ([2]; 60 min): 81% | % Remaining at 60 min (+ NADPH) [2]: 81% | % Remaining at 60 min (- NADPH) [2]: 98% | %Remaining at 60 min (Buffer) [2]: 103% | half-life at 10 µM [2]: > 60 min

CC[C@H]1C[C@H]2C[C@H]3c4[nH]c5ccc(O)cc5c4CCN(C2)[C@@H]13 [Noribogaine, reference compound]
SERT inhibition, result in words (hSERT): potent SERT inhibitor | Ki (rVMAT2; Cheng-Prusoff from IC50, Km (FFN206) = […]): 0.35 ± 0.04 µM | IC50 (rVMAT2; [3]): 0.57 ± 0.08 µM
